Measured values published in publication PMC11407783 (Nature cell biology, 2023).
pIC50: −log10 of the molar value.

Biological target: KDM3B (Homo sapiens, UniProt Q7LBC6)
Test: competitive inhibition of purified recombinant KDM3B
Format: biochemical

KDM3B, sequence (Q7LBC6 whole entry): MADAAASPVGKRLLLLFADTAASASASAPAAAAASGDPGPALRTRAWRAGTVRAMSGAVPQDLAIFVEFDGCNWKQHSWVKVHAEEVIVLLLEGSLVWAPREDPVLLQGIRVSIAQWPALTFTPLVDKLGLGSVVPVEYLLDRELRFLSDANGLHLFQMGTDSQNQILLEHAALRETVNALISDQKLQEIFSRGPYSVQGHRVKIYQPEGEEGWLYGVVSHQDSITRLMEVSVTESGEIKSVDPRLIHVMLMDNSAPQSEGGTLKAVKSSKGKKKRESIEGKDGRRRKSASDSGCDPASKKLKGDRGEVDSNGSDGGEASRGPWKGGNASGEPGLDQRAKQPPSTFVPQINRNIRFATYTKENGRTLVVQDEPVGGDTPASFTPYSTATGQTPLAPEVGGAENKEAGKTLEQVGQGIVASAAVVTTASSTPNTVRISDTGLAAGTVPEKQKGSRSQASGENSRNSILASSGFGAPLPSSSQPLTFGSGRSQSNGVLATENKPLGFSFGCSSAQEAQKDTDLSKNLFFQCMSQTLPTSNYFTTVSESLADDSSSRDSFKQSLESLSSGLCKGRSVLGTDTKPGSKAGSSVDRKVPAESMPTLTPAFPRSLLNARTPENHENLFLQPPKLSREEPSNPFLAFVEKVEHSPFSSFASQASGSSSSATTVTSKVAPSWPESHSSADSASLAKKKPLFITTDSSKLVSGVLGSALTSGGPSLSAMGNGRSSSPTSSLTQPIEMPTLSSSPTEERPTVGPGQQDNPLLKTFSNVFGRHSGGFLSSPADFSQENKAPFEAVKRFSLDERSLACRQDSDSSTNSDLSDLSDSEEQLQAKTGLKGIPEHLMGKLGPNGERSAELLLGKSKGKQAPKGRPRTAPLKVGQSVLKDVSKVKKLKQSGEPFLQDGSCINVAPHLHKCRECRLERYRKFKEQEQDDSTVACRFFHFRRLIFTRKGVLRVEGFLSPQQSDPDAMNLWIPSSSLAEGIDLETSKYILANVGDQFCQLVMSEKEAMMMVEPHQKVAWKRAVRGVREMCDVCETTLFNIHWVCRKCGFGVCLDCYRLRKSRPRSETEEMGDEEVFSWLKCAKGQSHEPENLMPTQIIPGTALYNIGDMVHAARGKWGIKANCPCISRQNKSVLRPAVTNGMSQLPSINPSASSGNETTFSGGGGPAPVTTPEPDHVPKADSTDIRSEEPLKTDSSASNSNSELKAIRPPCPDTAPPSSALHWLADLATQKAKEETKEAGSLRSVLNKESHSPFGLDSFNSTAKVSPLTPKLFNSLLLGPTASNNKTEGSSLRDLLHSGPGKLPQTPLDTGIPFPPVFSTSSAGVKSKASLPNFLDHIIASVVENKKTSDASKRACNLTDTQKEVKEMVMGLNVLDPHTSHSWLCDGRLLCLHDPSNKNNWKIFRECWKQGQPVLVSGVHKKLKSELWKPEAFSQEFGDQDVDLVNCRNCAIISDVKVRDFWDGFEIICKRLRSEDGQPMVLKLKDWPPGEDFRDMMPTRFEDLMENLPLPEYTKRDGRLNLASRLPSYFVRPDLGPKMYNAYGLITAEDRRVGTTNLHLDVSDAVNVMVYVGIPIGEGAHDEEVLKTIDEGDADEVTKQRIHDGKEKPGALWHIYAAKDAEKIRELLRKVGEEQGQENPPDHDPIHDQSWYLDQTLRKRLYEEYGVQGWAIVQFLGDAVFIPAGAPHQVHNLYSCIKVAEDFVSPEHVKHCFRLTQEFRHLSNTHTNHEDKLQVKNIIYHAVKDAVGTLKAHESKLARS

In the case of O=C(O)CCC(O)C(=O)O (stereo not shown) [R-2HG], the pIC50 was about 2.61.
